Reference: patent publication US20130273179A1, “SYSTEM AND METHOD FOR IMPROVING OUTCOME OF CEREBRAL ISCHEMIA” (ASTUCE, INC., priority 2012, published 2013)

What was measured:
[1] = system: cerebral ischemia (carotid artery occlusion model); experiment: Carotid artery occlusion model, Speckle laser Doppler, intubated rodents; assay type: in vivo; settings: both during the carotid occlusion and following ligature release
Description: (§1) In intubated rodents, the inventors have shown that cerebral blood flow increases by 100% within 60 minutes of intranasal nitric oxide delivery.

[2] = system: cerebral perfusion; experiment: CT perfusion scanning before and after intranasal nitric oxide in intubated patients with focal cerebral ischemia; assay type: in vivo, human
[3] = system: cerebral blood flow; experiment: Cerebral blood flow by cortical laser Doppler during intranasal nitric oxide in intubated rodents; assay type: in vivo; settings: intranasal non-inhaled delivery, within 60 minutes
Description: as §1

[4] = Tolerability of intranasal nitric oxide in awake humans (normal volunteers); assay type: in vivo, human
From the text: While nitric oxide may be given intranasally and without inhalation into the lungs to intubated, comatose individuals the tolerability of intranasal nitric oxide in awake humans has not previously been investigated. The inventors have tested the effect of nitric oxide in humans (normal volunteers) during intranasal delivery. […] Therefore it can easily be tolerated by awake, non-intubated patients.

Compound: [N]=O [nitric oxide]
- perfusion in the ischemic hemisphere [1]: perfusion is improved in the ischemic hemisphere
- Cerebral Blood Flow, Changes in ACA Watershed ([2]; Post Rx): Normalization,
- Mean Transit Time, Changes in ACA Watershed ([2]; Post Rx): Normalization
- Cerebral Blood Flow, Changes in ACA Watershed: increase in perfusion on L ([2]; Post Rx vs Pre Rx, left (ischemic) hemisphere): 67% increase in
- Mean Transit Time, Right Hemisphere (normal) ([2]; Post Rx, one hour of intranasal non-inhaled nitric oxide (Pre Rx 6)): 6.1 s
- Mean Transit Time, Left Hemisphere (ischemic) ([2]; Post Rx, one hour of intranasal non-inhaled nitric oxide (Pre Rx 10)): 6.0 s
- Cerebral Blood Flow, Left Hemisphere (ischemic) ([2]; Post Rx, one hour of intranasal non-inhaled nitric oxide (Pre Rx 31)): 52
- Cerebral Blood Flow, Right Hemisphere (normal) ([2]; Post Rx, one hour of intranasal non-inhaled nitric oxide (Pre Rx 49)): 45
- cerebral perfusion during treatment (CT perfusion scanning) ([2]; intubated patients with cerebral ischemia): augmentation of cerebral perfusion and normalization of regional perfusion abnormalities
- cerebral blood flow increase [3]: 100%
- tolerability of gas treatment ([4]; humans, high concentration, intra-nasally and without inhalation): tolerated at high concentration
- sensation during intranasal delivery ([4]; normal volunteers, concentrations up to 100 PPM): does not elicit any sensation
